Reference: ChEMBL document CHEMBL1157233, “5,6:8,9-diepoxy and other cytotoxic sterols from the marine sponge Homaxinella sp” (2006)
≈ marks a conversion by molar mass, not a printed value.

Tests used:
Type in all cases: functional
Conditions in all cases: read-out: ED50 (the source's name)
[1] = system: HCT-15; assay: Cytotoxicity against human HCT15 cells
[2] = system: SK-MEL-2; assay: Cytotoxicity against human SK-MEL-2 cells
[3] = system: XF498; assay: Cytotoxicity against human XF498 cells
[4] = system: SK-OV-3; assay: Cytotoxicity against human SKOV3 cells
[5] = system: A549; assay: Cytotoxicity against human A549 cells

Compound | EC50 [1] [µg/mL] | EC50 [2] [µg/mL] | EC50 [3] [µg/mL] | EC50 [4] [µg/mL] | EC50 [5] [µg/mL]
CC(C)[C@@H](C)/C=C/[C@@H](C)[C@H]1CC[C@H]2C3=C[C@@H](O)[C@@]4(O)C[C@@H](O)CC[C@]4(C)[C@H]3CC[C@]12C [CEREVISTEROL] | 3 (≈ 6.97 µM) | 2.8 (≈ 6.5 µM) | 3.3 (≈ 7.66 µM) | 6 (≈ 13.9 µM) | 3.9 (≈ 9.06 µM)
CC[C@@H](/C=C/[C@@H](C)[C@H]1CC[C@H]2C3=C[C@@H](OC)[C@@]4(O)C[C@@H](O)CC[C@]4(C)[C@H]3CC[C@]12C)C(C)C | 4.9 (≈ 10.7 µM) | 5.2 (≈ 11.3 µM) | 3.8 (≈ 8.28 µM) | 7 (≈ 15.3 µM) | 4.4 (≈ 9.59 µM)
CC(C)C/C=C/[C@@H](C)[C@H]1CC[C@H]2C3=C[C@@H](O)[C@@]4(O)C[C@@H](O)CC[C@]4(C)[C@@]3(O)CC[C@]12C | > 5 | > 5 | > 5 | > 5 | > 5
CC(C)C/C=C/[C@@H](C)[C@H]1CC[C@H]2C3=CC(=O)[C@@]4(O)C[C@@H](O)CC[C@]4(C)[C@@]3(O)CC[C@]12C [HOMAXISTEROL C1] | 3.7 (≈ 8.59 µM) | 3.9 (≈ 9.06 µM) | 3.7 (≈ 8.59 µM) | 7 (≈ 16.3 µM) | 5 (≈ 11.6 µM)
CC(C)C/C=C/[C@@H](C)[C@H]1CC[C@H]2C3=C[C@H](O)[C@@]4(O)C[C@@H](O)CC[C@]4(C)[C@H]3CC[C@]12C [HOMAXISTEROL D1] | 3.1 (≈ 7.44 µM) | 3.1 (≈ 7.44 µM) | 3.1 (≈ 7.44 µM) | 3.9 (≈ 9.36 µM) | 3.5 (≈ 8.4 µM)
CC(C)[C@H](C)/C=C/[C@@H](C)[C@H]1CC[C@H]2C3=C[C@@H](O)[C@@]4(O)C[C@@H](O)CC[C@]4(C)[C@H]3CC[C@]12C | > 5 | > 5 | > 5 | > 5 | > 5
CC[C@@H](/C=C/[C@@H](C)[C@H]1CC[C@@H]2[C@]1(C)CC[C@@]13O[C@@]21[C@H](O)[C@@H]1O[C@@]12C[C@@H](O)CC[C@]32C)C(C)C (relative stereo) [HOMAXISTEROL B2] | 1.1 (≈ 2.4 µM) | 1.1 (≈ 2.4 µM) | 1 (≈ 2.18 µM) | 1.3 (≈ 2.83 µM) | 1.4 (≈ 3.05 µM)
CC(C)C/C=C/[C@@H](C)[C@H]1CC[C@@H]2[C@]1(C)CC[C@@]13O[C@@]21[C@H](O)[C@@H]1O[C@@]12C[C@@H](O)CC[C@]32C [HOMAXISTEROL B1] | 3.2 (≈ 7.43 µM) | 3.1 (≈ 7.2 µM) | 3.4 (≈ 7.9 µM) | 3.5 (≈ 8.13 µM) | 3.9 (≈ 9.06 µM)
CO[C@@H]1C=C2[C@@H]3CC[C@H]([C@H](C)/C=C/CC(C)C)[C@@]3(C)CC[C@@H]2[C@@]2(C)CC[C@H](O)C[C@]12O | 4.2 (≈ 9.75 µM) | 3.4 (≈ 7.89 µM) | 4 (≈ 9.29 µM) | 7.1 (≈ 16.5 µM) | 4.8 (≈ 11.1 µM)
COc1cccc2c1C(=O)c1c(O)c3c(c(O)c1C2=O)C[C@@](O)(C(=O)CO)C[C@@H]3O[C@H]1C[C@H](N)[C@H](O)[C@H](C)O1 (stereo in doubt) [DOXORUBICIN] | 0.05 (≈ 0.092 µM) | 0.01 (≈ 0.0184 µM) | 0.01 (≈ 0.0184 µM) | 0.03 (≈ 0.0552 µM) | 0.01 (≈ 0.0184 µM)
CC[C@@H](/C=C/[C@@H](C)[C@H]1CC[C@H]2C3=C[C@@H](O)[C@@]4(O)C[C@@H](O)CC[C@]4(C)[C@@]3(O)CC[C@]12C)C(C)C | > 5 | > 5 | > 5 | > 5 | > 5
CC(C)C(C)/C=C/[C@@H](C)[C@H]1CC[C@@H]2[C@]1(C)CC[C@@]13O[C@@]21[C@H](O)[C@@H]1O[C@@]12C[C@@H](O)CC[C@]32C (stereo not given in full) | 4.8 (≈ 10.8 µM) | 2.7 (≈ 6.07 µM) | 3.4 (≈ 7.65 µM) | 6.3 (≈ 14.2 µM) | 7.1 (≈ 16 µM)
CC[C@@H](/C=C/[C@@H](C)[C@H]1CC[C@H]2C3=C[C@@H](O)[C@@]4(O)C[C@@H](O)CC[C@]4(C)[C@H]3CC[C@]12C)C(C)C | > 5 | > 5 | > 5 | > 5 | > 5
CC(C)C/C=C/[C@@H](C)[C@H]1CC[C@H]2C3=C[C@@H](O)[C@@]4(O)C[C@@H](O)CC[C@]4(C)[C@H]3CC[C@]12C | > 5 | > 5 | > 5 | > 5 | > 5
